{
  "source": "patent US11891601B2",
  "about": "“Method to enhance the transcription regulation of SUPT4H on genes containing repetitive nucleotide sequences” (National Yang-Ming University, priority 2018, dated 2024)",
  "tested_on": "R-loops on (CAG)n-eGFP in ST14A cells",
  "test": "RNA/DNA immunoprecipitation (DIP) assay of R-loops in ST14A cells expressing Q7-GFP or Q81-GFP",
  "type": "cell-based, rat",
  "settings": "ST14A tet cells, tropolone 60 μM for 12 hours",
  "experimental": "Yeast cells were collected after culturing in 2% galactose-containing medium for 12 hours, and then grinded by glass beads in the presence of 300 μl extraction buffer (10 mM Tris-HCl pH 8.0, 10 mM EDTA, 200 mM NaCl, 1% SDS, 2% Triton X-100, 25 units RNase inhibitor). The nucleic acid mixture was subjected to sonication (Bioruptor UCD-200) and extracted by phenol (pH 8.0). Purified chromatin DNA and RNA, with or without RNase H treatment for 90 minutes, was precipitated by monoclonal antibody S9.6 bound to protein G agarose beads. […] The RNA/DNA hybrid (R-loop) signal was analyzed by qPCR and the Quantitative-Comparative CT (MCT) program. In yeast experiments, a pair of primers (Primer-B F and Primer-B R) were used to quantify R-loop signal in the vicinity of CAG repeats and the primer set AMP was used as a control. […] For Hdh^Q7/Q7 and Hdh^Q111/Q111, mouse HTT DIP primer set was used to quantify R-loop signal of the CAG repeating region and Tubal a DIP primer set was included as a control. […]\nPlease refer to FIG. 6. […] A relative high signal of R-loops was detected in (CAG)7-eGFP, but this signal is not increased by tropolone. […] RNA was extracted and analyzed by real-time RT-qPCR to measure the quantity of (CAG)n-GFP, SUPT4H and snRNA U6. […]",
  "data": [
    {"compound": "O=c1cccccc1O", "note": "[Tropolone]", "values": [
      {"measurement": "R-loop signal by DIP assay, (CAG)8i-eGFP", "setting": "long repeat", "result": "significantly increased"},
      {"measurement": "R-loop signal by DIP assay, (CAG)7-eGFP", "setting": "short repeat (CAG)7-eGFP", "result": "not increased"}
    ]}
  ]
}
